Results taken from patent US7732473B2, “Compounds with nootropic action, their preparation, pharmaceutical compositions containing them, and use thereof” (Neurotune AG, priority 2006, dated 2010).

Tested on: rat model of mononeuropathy dx
Test: Paw-pressure test in rat chronic constriction injury model of mononeuropathy, injured paw (dx)
Assay type: in vivo
Settings: i.c.v., dose per compound (3-300 μg); paw-pressure test 14 days after operation
Text: Pharmacological Methods Chronic Constriction Injury Model
A peripheral mononeuropathy was produced in adult rats by placing loosely constrictive ligatures around the common sciatic nerve according to the method described by Bennett & Xie (Pain […], 33, 87-107).
Rats were anesthetized with chloral hydrate. The common sciatic nerve was exposed at the level of the middle of the thigh by blunt dissection through biceps femoris. Proximal to sciatica's trifurcation, about 1 cm of the nerve was freed of adhering tissue and four ligatures (3/0 silk tread) were tied loosely around it with about 1 mm spacing. The length of the nerve thus affected was […]. Great care was taken to tie the ligatures such that the diameter of the nerve was seen to be just barely constricted when viewed with 40× magnification. The left paw was untouched.
The nociceptive threshold in the rat was determined with an analgesimeter (Ugo Basile, Varese, Italy), according to the method described by Leighton et al. (Br. J. Pharmacol. 1988, 93, 553-560). Rats scoring below 40 g or over 75 g during the test before drug administration (25%) were rejected. An arbitrary cut-off value of 250 g was adopted.

Row | Compound | antihyperalgic effect compared with saline or vehicle treated group
1 | O=C1CCC2N1CC(=O)N2c1ccccc1 (stereo not drawn) [Example 1, 1-Phenyl-tetrahydro-1H-pyrrolo[1,2-a]imidazole-2,5-dione] | showed an antihyperalgic effect
2 | Cc1cccc(N2C(=O)CN3C(=O)CCC32)c1 (stereo not drawn) [Example 5, 1-m-Tolyl-tetrahydro-pyrrolo[1,2-a]imidazole-2,5-dione] | showed an antihyperalgic effect
3 | CC(C)c1cccc(N2C(=O)CN3C(=O)CCC32)c1 (stereo not drawn) [Example 22, 1-(3-Isopropyl-phenyl)-tetrahydro-pyrrolo [1,2-a]imidazole-2,5-dione] | showed an antihyperalgic effect
4 | CC[C@@H](C(N)=O)N1CCCC1=O [LEVETIRACETAM, 2-(2-oxopyrrolidin-1-yl) butyramide, reference compound] | showed an antihyperalgic effect
5 | O=C1CN2C(=O)CCC2N1 (stereo not drawn) [DIMIRACETAM, 2,5-dioxohexahydro-1H-pyrrolo[1,2-a]imidazole, reference compound] | showed an antihyperalgic effect
6 | Cc1ccc(N2C(=O)CN3C(=O)CCC32)cc1 (stereo not drawn) [Example 6, 1-p-Tolyl-tetrahydro-pyrrolo[1,2-a]imidazole-2,5-dione] | showed an antihyperalgic effect
7 | N#Cc1cccc(N2C(=O)CN3C(=O)CCC32)c1 (stereo not drawn) [Example 13, 1-(3-Cyano-phenyl)-tetrahydro-pyrrolo [1,2-a]imidazole-2,5-dione] | showed an antihyperalgic effect
8 | Cc1ccccc1N1C(=O)CN2C(=O)CCC21 (stereo not drawn) [Example 2, 1-o-tolyl-tetrahydro-1H-pyrrolo[1,2-a]imidazole-2,5-dione] | showed an antihyperalgic effect
9 | NCC1(CC(=O)O)CCCCC1 [GABAPENTIN, reference compound] | showed an antihyperalgic effect

Tested on: not given
Test: not given
Settings: not given

Row | Compound | melting point [°C]
10 | Cc1ccc(F)cc1N1C(=O)CN2C(=O)CCC21 (stereo not drawn) [Example 7, 1-(5-Fluoro-2-methyl-phenyl)-tetrahydro-pyrrolo[1,2-a]imidazole-2,5-dione] | 147 to 148
11 | O=C1CCC2N1CC(=O)N2c1ccc(F)cc1 (stereo not drawn) [Example 38, 1-(4-Fluoro-phenyl)-tetrahydro-pyrrolo [1,2-a]imidazole-2,5-dione] | 158 to 159
12 | O=C1CCC2N1CC(=O)N2c1cccc(Cl)c1 (stereo not drawn) [Example 11, 1-(3-Chloro-phenyl)-tetrahydro-pyrrolo [1,2-a]imidazole-2,5-dione] | 123 to 125
13 | O=C1C(Cc2ccccc2)N2C(=O)CCC2N1c1ccccc1 (stereo not drawn) [Example 24, 3-Benzyl-1-phenyl-tetrahydro-pyrrolo [1,2-a]imidazole-2,5,-dione] | 134 to 136
14 | O=C1CCC2N1CC(=O)N2c1ccccc1 (stereo not drawn) [Example 1, 1-Phenyl-tetrahydro-1H-pyrrolo[1,2-a]imidazole-2,5-dione] | 185 to 188
15 | Cc1ccc(N2C(=O)CN3C(=O)CCC32)nc1 (stereo not drawn) [Example 42, 1-(5-Methylpyridin-2-yl)-tetrahydropyrrolo [1,2-a]imidazole-2,5-dione] | 158 to 159
16 | N#Cc1ccccc1N1C(=O)CN2C(=O)CCC21 (stereo not drawn) [Example 43, 1-(2-Cyano-phenyl)-tetrahydro-pyrrolo [1,2-a]imidazole-2,5-dione] | 94 to 95
17 | Cc1cccc(N2C(=O)CN3C(=O)CCC32)c1 (stereo not drawn) [Example 5, 1-m-Tolyl-tetrahydro-pyrrolo[1,2-a]imidazole-2,5-dione] | 92 to 93
18 | N#Cc1ccc(N2C(=O)CN3C(=O)CCC32)cc1 (stereo not drawn) | 175 to 176
19 | Cc1cc(C)cc(N2C(=O)CN3C(=O)CCC32)c1 (stereo not drawn) [Example 19, 1-(3,5-Dimethyl-phenyl)-tetrahydro-pyrrolo [1,2-a]imidazole-2,5-dione] | 103 to 104
20 | O=C1CCC2N1CC(=O)N2c1cccs1 (stereo not drawn) [Example 4, 1-Thiophen-2-yl-tetrahydro-pyrrolo[1,2-a]imidazole-2,5-dione] | 170 to 171
21 | O=C1CCC2N1CC(=O)N2c1ccc2ccccc2c1 (stereo not drawn) [Example 21, 1-Naphthalen-2-yl-tetrahydro-pyrrolo [1,2-a]imidazole-2,5-dione] | 175 to 176
22 | COc1cccc(N2C(=O)CN3C(=O)CCC32)c1 (stereo not drawn) [Example 12, 1-(3-Methoxy-phenyl)-tetrahydro-pyrrolo [1,2-a]imidazole-2,5-dione] | 94 to 95
23 | CC(C)c1cccc(N2C(=O)CN3C(=O)CCC32)c1 (stereo not drawn) [Example 22, 1-(3-Isopropyl-phenyl)-tetrahydro-pyrrolo [1,2-a]imidazole-2,5-dione] | 81 to 82
24 | O=C1CCC2N1CC(=O)N2c1ccc(Cl)cc1 (stereo not drawn) [Example 14, 1-(4-Chloro-phenyl)-tetrahydro-pyrrolo [1,2-a]imidazole-2,5-dione] | 159 to 160
25 | COc1ccc(N2C(=O)CN3C(=O)CCC32)cc1 (stereo not drawn) [Example 18, 1-(4-Methoxy-phenyl)-tetrahydro-pyrrolo[1,2-a]imidazole-2,5-dione] | 210 to 211
26 | O=C1CCC2N1CC(=O)N2c1ccc(CO)cc1 (stereo not drawn) [Example 34, 1-(4-Hydroxymethyl-phenyl)-tetrahydro-pyrrolo[1,2-a]imidazole-2,5-dione] | 159 to 161
27 | O=C1CCC2N1CC(=O)N2c1ccccn1 (stereo not drawn) [Example 40, 1-Pyridin-2-yl-tetrahydro-pyrrolo[1,2-a] imidazole-2,5-dione] | 139 to 140

Row | Compound | melting point [°C]
28 | Cc1cc(F)cc(N2C(=O)CN3C(=O)CCC32)c1 (stereo not drawn) [Example 27, 1-(3-Fluoro-5-methyl-phenyl)-tetrahydro-pyrrolo[1,2-a]imidazole-2,5-dione] | 111 to 113
29 | Cc1cc(N2C(=O)CN3C(=O)CCC32)ccc1Cl (stereo not drawn) [Example 23, 1-(4-Chloro-3-methyl-phenyl)-tetrahydro-pyrrolo[1,2-a]imidazole-2,5-dione] | 138 to 139
30 | N#Cc1cccc(N2C(=O)CN3C(=O)CCC32)c1 (stereo not drawn) [Example 13, 1-(3-Cyano-phenyl)-tetrahydro-pyrrolo [1,2-a]imidazole-2,5-dione] | 128 to 130
31 | CCOC(=O)c1ccc(N2C(=O)CN3C(=O)CCC32)cc1 (stereo not drawn) [Example 36, 4-(2,5-Dioxo-hexahydro-pyrrolo[1,2-a]imidazole-1-yl)-benzoic acid ethyl ester] | 158 to 159
32 | CC12CCC(=O)N1CC(=O)N2c1ccccc1 (stereo not drawn) [Example 29, 7a-Methyl-1-phenyl-tetrahydro-pyrrolo [1,2-a]imidazole-2,5-dione] | 154 to 155
33 | O=C1CCC2N1CC(=O)N2c1cccnc1 (stereo not drawn) [Example 41, 1-Pyridin-3-yl-tetrahydro-pyrrolo[1,2-a] imidazole-2,5-dione] | 180 to 182
34 | Cc1ccc(N2C(=O)CN3C(=O)CCC32)cc1C (stereo not drawn) [Example 20, 1-(3,4-Dimethyl-phenyl)-tetrahydro-pyrrolo [1,2-a]imidazole-2,5-dione] | 142 to 143
35 | Cc1ccccc1N1C(=O)CN2C(=O)CCC21 (stereo not drawn) [Example 2, 1-o-tolyl-tetrahydro-1H-pyrrolo[1,2-a]imidazole-2,5-dione] | 138 to 139
36 | O=C(O)c1ccc(N2C(=O)CN3C(=O)CCC32)cc1 (stereo not drawn) [Example 35, 4-(2,5-Dioxo-hexahydro-pyrrolo[1,2-a]imidazole-1-yl)-benzoic acid] | 252 to 253
37 | CS(=O)(=O)c1ccc(N2C(=O)CN3C(=O)CCC32)cc1 (stereo not drawn) [Example 37, 1-(4-Methanesulfonyl-phenyl)-tetrahydro-pyrrolo[1,2-a]imidazole-2,5-dione] | 143 to 145
38 | O=C1CCC2N1CC(=O)N2c1cccc(O)c1 (stereo not drawn) [Example 15, 1-(3-Hydroxy-phenyl)-tetrahydro-pyrrolo [1,2-a]imidazole-2,5-dione] | 210 to 211
39 | CC(C)CC1C(=O)N(c2ccccc2)C2CCC(=O)N12 (stereo not drawn) [Example 26, 3-Isobutyl-1-phenyl-tetrahydro-pyrrolo [1,2-a]imidazole-2,5,-dione] | 101 to 102
40 | CC1C(=O)N(c2ccccc2)C2CCC(=O)N12 (stereo not drawn) [Example 25, 3-Methyl-1-phenyl-tetrahydro-pyrrolo [1,2-a]imidazole-2,5,-dione] | 137 to 138
41 | Cc1cc(Cl)ccc1N1C(=O)CN2C(=O)CCC21 (stereo not drawn) [Example 10, 1-(4-Chloro-2-methyl-phenyl)-tetrahydro-pyrrolo[1,2-a]imidazole-2,5-dione] | 122 to 124
42 | Cc1ccc(N2C(=O)CN3C(=O)CCC32)cc1F (stereo not drawn) [Example 28, 1-(3-Fluoro-4-methyl-phenyl)-tetrahydro-pyrrolo[1,2-a]imidazole-2,5-dione] | 136 to 137
43 | CC(C)c1ccc(N2C(=O)CN3C(=O)CCC32)cc1 (stereo not drawn) [Example 33, 1-(4-Isopropyl-phenyl)-tetrahydro-pyrrolo [1,2-a]imidazole-2,5-dione] | 124 to 125
44 | Cc1c(F)cccc1N1C(=O)CN2C(=O)CCC21 (stereo not drawn) [Example 8] | 135 to 137
45 | O=C1CCC2N1CC(=O)N2c1cccc(F)c1 (stereo not drawn) [Example 44, 1-(3-Fluoro-phenyl)-tetrahydro-pyrrolo [1,2-a]imidazole-2,5-dione] | 145 to 149
